Results as given in patent publication US6525001B1, “Substituted pyrimidine and pyridine herbicides” (Mid-American Commercialization Corporation, priority 1997, dated 2003).

Key:
Type in all cases: in vivo
Set-up in all cases: key: 0 is no effect; 10 is complete control
[1] = system: morningglory (Ipomoea spp.); test: Test A pre-/postemergence; conditions: 0 to 10 scale
Method: (§1) Seeds of barnyardgrass (Echinochloa crus-galli), crabgrass (Digitaria spp.), morningglory (Ipomoea spp.), and velvetleaf (Abutilon theophrasti) were planted into a sandy loam soil and treated preemergence by soil drench with test chemicals formulated in a non-phytotoxic solvent mixture which includes a surfactant. At the same time, these crop and weed species were also treated postemergence sprayed to runoff, with test chemicals formulated in the same manner. Plants ranged in height from two to eighteen cm and were in the one to two leaf stage for the postemergence treatment. Treated plants and untreated controls were maintained in a greenhouse for approximately eleven days, after which all treated plants were compared to untreated controls and visually evaluated for injury. Plant response ratings, summarized in Table A, are based on a 0 to 10 scale where 0 is no effect and 10 is complete control. A dash (−) response means no test results.

[2] = system: barnyardgrass (Echinochloa crus-galli); test: Test A pre-/postemergence; conditions: 0 to 10 scale
Method: as §1

[3] = system: velvetleaf (Abutilon theophrasti); test: Test A pre-/postemergence; conditions: 0 to 10 scale
Method: as §1

[4] = system: crabgrass (Digitaria spp.); test: Test A pre-/postemergence; conditions: 0 to 10 scale
Method: as §1

[5] = system: crabgrass (Digitaria sanguinalis); test: Test B pre-/postemergence
How it was run: (§2)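 Response scores run from 0, meaning no effect, to 10, meaning complete control, assigned by eye relative to controls twelve to sixteen days after spraying. Treatment was both preemergence on planted seed and postemergence on plants at the 1- to 4-leaf stage.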

[6] = system: wheat (Triticum aestivum); test: Test B pre-/postemergence
How it was run: as §2

[7] = system: momingglory (Ipomoea hederacea); test: Test B pre-/postemergence
How it was run: as §2

[8] = system: blackgrass (Alopecurus myosuroides); test: Test B pre-/postemergence
How it was run: as §2

[9] = system: velvetleaf (Abutilon theophrasti); test: Test B pre-/postemergence
How it was run: as §2

corn (Zea mays) = test: Test B pre-/postemergence
How it was run: as §2

rape (Brassica napus) = test: Test B pre-/postemergence
How it was run: as §2

[10] = system: sugar beet (Beta vulgaris); test: Test B pre-/postemergence
How it was run: as §2

[11] = system: giant foxtail (Setaria faberii); test: Test B pre-/postemergence
How it was run: as §2

[12] = system: broadleaf signalgrass (Brachiaria decumbens); test: Test B pre-/postemergence
How it was run: as §2

wild oat (Avena fatua) = test: Test B pre-/postemergence
How it was run: as §2

[13] = system: cocklebur (Xanthium strumarium); test: Test B pre-/postemergence
How it was run: as §2

[14] = system: purple nutsedge (Cyperus rotundus); test: Test B pre-/postemergence
How it was run: as §2

[15] = system: pigweed (Amaranthus retroflexus); test: Test B pre-/postemergence
How it was run: as §2

[16] = system: bedstraw (Galium aparine); test: Test B pre-/postemergence
How it was run: as §2

soybean (Glycine max) = test: Test B pre-/postemergence
How it was run: as §2

[17] = system: smallflower flatsedge (Cyperus difformis); test: Test B flood test
How it was run: (§3)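 Each value is a visual injury score relative to controls, with 10 meaning complete control and 0 no effect. Evaluation took place twelve to sixteen days after the 2-leaf-stage plants were treated and kept in the greenhouse.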

[18] = system: bamyardgrass (Echinochloa crus-galli); test: Test B flood test
How it was run: as §3

[19] = system: duck salad (Heteranthera limosa); test: Test B flood test
How it was run: as §3

rice (Oryza sativa) = test: Test B flood test
How it was run: as §3

[20] = PRE SOIL DRENCH, Rate 1000 g/ha
[21] = PRE SOIL DRENCH, Rate 2000 g/ha
[22] = postemergence SPRAYED TO RUNOFF, Rate 500 g/ha
[23] = postemergence SPRAYED TO RUNOFF, Rate 1000 g/ha
[24] = Preemergence, Rate 62 g/ha, scale of 0 to 10
[25] = Rate 62 g/ha, Postemergence (flood test)
[26] = Rate 125 g/ha, Postemergence section (flood test species)
[27] = Rate 250 g/ha, Postemergence (flood test species)

Structure (SMILES): Cc1cnc(-c2ccccc2)nc1Cn1cnc(C(F)(F)F)c1 [Compound 8]
- Plant response rating, Morningglory [1, 20]: 9
- Plant response rating, Morningglory [1, 21]: 8
- Plant response rating, Morningglory [1, 22]: 3
- Plant response rating, Morningglory [1, 23]: 7
- Plant response rating, Barnyardgrass [2, 20]: 4
- Plant response rating, Barnyardgrass [2, 21]: 7
- Plant response rating, Barnyardgrass [2, 22]: 3
- Plant response rating, Barnyardgrass [2, 23]: 3
- Plant response rating, Velvetleaf [3, 20]: 2
- Plant response rating, Velvetleaf [3, 21]: 3
- Plant response rating, Velvetleaf [3, 22]: 1
- Plant response rating, Velvetleaf [3, 23]: 2
- Plant response rating, Crabgrass [4, 20]: 9
- Plant response rating, Crabgrass [4, 21]: 10
- Plant response rating, Crabgrass [4, 22]: 8
- Plant response rating, Crabgrass [4, 23]: 5

Structure (SMILES): N#Cc1ccc(-c2nccc(C(=O)c3cccc(C(F)(F)F)c3)n2)cc1 [Compound 78]
- Plant response rating, Crabgrass [5, 24]: 0
- Crabgrass plant response rating ([5]; Rate 62 g/ha, Postemergence): 0
- Crabgrass plant response rating ([5]; Rate 125 g/ha, Postemergence): 0
- Plant response rating, Crabgrass ([5]; Rate 125 g/ha, Preemergence): 0
- Plant response rating, Crabgrass ([5]; Rate 250 g/ha, Postemergence): 0
- Plant response rating, Crabgrass ([5]; Rate 250 g/ha, Preemergence): 0
- Plant response rating, Wheat [6, 24]: 0
- Wheat plant response rating ([6]; Rate 62 g/ha, Postemergence): 0
- Wheat plant response rating ([6]; Rate 125 g/ha, Postemergence): 0
- Plant response rating, Wheat ([6]; Rate 125 g/ha, Preemergence): 0
- Plant response rating, Wheat ([6]; Rate 250 g/ha, Postemergence): 0
- Plant response rating, Wheat ([6]; Rate 250 g/ha, Preemergence): 0
- Plant response rating, Morningglory [7, 24]: 0
- Morningglory plant response rating ([7]; Rate 62 g/ha, Postemergence): 0
- Morningglory plant response rating ([7]; Rate 125 g/ha, Postemergence): 0
- Plant response rating, Morningglory ([7]; Rate 125 g/ha, Preemergence): 0
- Plant response rating, Morningglory ([7]; Rate 250 g/ha, Postemergence): 2
- Plant response rating, Morningglory ([7]; Rate 250 g/ha, Preemergence): 0
- Plant response rating, Blackgrass [8, 24]: 0
- Blackgrass plant response rating ([8]; Rate 62 g/ha, Postemergence): 0
- Blackgrass plant response rating ([8]; Rate 125 g/ha, Postemergence): 0
- Plant response rating, Blackgrass ([8]; Rate 125 g/ha, Preemergence): 0
- Plant response rating, Blackgrass ([8]; Rate 250 g/ha, Postemergence): 1
- Plant response rating, Blackgrass ([8]; Rate 250 g/ha, Preemergence): 0
- Plant response rating, Velvetleaf [9, 24]: 0
- Velvetleaf plant response rating ([9]; Rate 62 g/ha, Postemergence): 0
- Velvetleaf plant response rating ([9]; Rate 125 g/ha, Postemergence): 0
- Plant response rating, Velvetleaf ([9]; Rate 125 g/ha, Preemergence): 0
- Plant response rating, Velvetleaf ([9]; Rate 250 g/ha, Postemergence): 0
- Plant response rating, Velvetleaf ([9]; Rate 250 g/ha, Preemergence): 0
- Plant response rating, Corn (corn (Zea mays); [24]): 0
- Corn plant response rating (corn (Zea mays); Rate 62 g/ha, Postemergence): 0
- Corn plant response rating (corn (Zea mays); Rate 125 g/ha, Postemergence): 0
- Plant response rating, Corn (corn (Zea mays); Rate 125 g/ha, Preemergence): 0
- Plant response rating, Corn (corn (Zea mays); Rate 250 g/ha, Postemergence): 2
- Plant response rating, Corn (corn (Zea mays); Rate 250 g/ha, Preemergence): 0
- Plant response rating, Rape (rape (Brassica napus); [24]): 0
- Rape plant response rating (rape (Brassica napus); Rate 62 g/ha, Postemergence): 0
- Rape plant response rating (rape (Brassica napus); Rate 125 g/ha, Postemergence): 0
- Plant response rating, Rape (rape (Brassica napus); Rate 125 g/ha, Preemergence): 0
- Plant response rating, Rape (rape (Brassica napus); Rate 250 g/ha, Postemergence): 0
- Plant response rating, Rape (rape (Brassica napus); Rate 250 g/ha, Preemergence): 0
- Plant response rating, Sugarbeets [10, 24]: 0
- Sugarbeets plant response rating ([10]; Rate 62 g/ha, Postemergence): 0
- Sugarbeets plant response rating ([10]; Rate 125 g/ha, Postemergence): 0
- Plant response rating, Sugarbeets ([10]; Rate 125 g/ha, Preemergence): 0
- Plant response rating, Sugarbeets ([10]; Rate 250 g/ha, Postemergence): 0
- Plant response rating, Sugarbeets ([10]; Rate 250 g/ha, Preemergence): 0
- Plant response rating, Giant foxtail [11, 24]: 0
- Giant foxtail plant response rating ([11]; Rate 62 g/ha, Postemergence): 0
- Giant foxtail plant response rating ([11]; Rate 125 g/ha, Postemergence): 0
- Plant response rating, Giant foxtail ([11]; Rate 125 g/ha, Preemergence): 0
- Plant response rating, Giant foxtail ([11]; Rate 250 g/ha, Postemergence): 0
- Plant response rating, Giant foxtail ([11]; Rate 250 g/ha, Preemergence): 0
- B. signalgrass plant response rating ([12]; Rate 62 g/ha, Postemergence): 0
- B. signalgrass plant response rating ([12]; Rate 62 g/ha, Preemergence): 0
- B. signalgrass plant response rating ([12]; Rate 125 g/ha, Postemergence): 0
- Plant response rating, B. signalgrass ([12]; Rate 125 g/ha, Preemergence): 0
- Plant response rating, B. signalgrass ([12]; Rate 250 g/ha, Postemergence): 1
- Plant response rating, B. signalgrass ([12]; Rate 250 g/ha, Preemergence): 0
- Plant response rating, Wild oats (wild oat (Avena fatua); [24]): 0
- Wild oats plant response rating (wild oat (Avena fatua); Rate 62 g/ha, Postemergence): 0
- Wild oats plant response rating (wild oat (Avena fatua); Rate 125 g/ha, Postemergence): 0
- Plant response rating, Wild oats (wild oat (Avena fatua); Rate 125 g/ha, Preemergence): 0
- Plant response rating, Wild oats (wild oat (Avena fatua); Rate 250 g/ha, Postemergence): 0
- Plant response rating, Wild oats (wild oat (Avena fatua); Rate 250 g/ha, Preemergence): 0
- Plant response rating, Cocklebur [13, 24]: 0
- Cocklebur plant response rating ([13]; Rate 62 g/ha, Postemergence): 0
- Cocklebur plant response rating ([13]; Rate 125 g/ha, Postemergence): 0
- Plant response rating, Cocklebur ([13]; Rate 125 g/ha, Preemergence): 0
- Plant response rating, Cocklebur ([13]; Rate 250 g/ha, Postemergence): 0
- Plant response rating, Cocklebur ([13]; Rate 250 g/ha, Preemergence): 0
- Plant response rating, Nutsedge [14, 24]: 0
- Nutsedge plant response rating ([14]; Rate 62 g/ha, Postemergence): 0
- Nutsedge plant response rating ([14]; Rate 125 g/ha, Postemergence): 0
- Plant response rating, Nutsedge ([14]; Rate 125 g/ha, Preemergence): 0
- Plant response rating, Nutsedge ([14]; Rate 250 g/ha, Postemergence): 0
- Plant response rating, Nutsedge ([14]; Rate 250 g/ha, Preemergence): 0
- Plant response rating, Redroot pigweed [15, 24]: 0
- Redroot pigweed plant response rating ([15]; Rate 62 g/ha, Postemergence): 0
- Redroot pigweed plant response rating ([15]; Rate 125 g/ha, Postemergence): 0
- Plant response rating, Redroot pigweed ([15]; Rate 125 g/ha, Preemergence): 0
- Plant response rating, Redroot pigweed ([15]; Rate 250 g/ha, Postemergence): 4
- Plant response rating, Redroot pigweed ([15]; Rate 250 g/ha, Preemergence): 0
- Plant response rating, Bedstraw [16, 24]: 0
- Bedstraw plant response rating ([16]; Rate 62 g/ha, Postemergence): 0
- Bedstraw plant response rating ([16]; Rate 125 g/ha, Postemergence): 0
- Plant response rating, Bedstraw ([16]; Rate 125 g/ha, Preemergence): 0
- Plant response rating, Bedstraw ([16]; Rate 250 g/ha, Postemergence): 0
- Plant response rating, Bedstraw ([16]; Rate 250 g/ha, Preemergence): 0
- Plant response rating, Soybean (soybean (Glycine max); [24]): 0
- Soybean plant response rating (soybean (Glycine max); Rate 62 g/ha, Postemergence): 0
- Soybean plant response rating (soybean (Glycine max); Rate 125 g/ha, Postemergence): 0
- Plant response rating, Soybean (soybean (Glycine max); Rate 125 g/ha, Preemergence): 0
- Plant response rating, Soybean (soybean (Glycine max); Rate 250 g/ha, Postemergence): 0
- Plant response rating, Soybean (soybean (Glycine max); Rate 250 g/ha, Preemergence): 0
- S. Flatsedge plant response rating [17, 25]: 0
- S. Flatsedge plant response rating [17, 26]: 0
- Plant response rating, S. Flatsedge [17, 27]: 0
- Barnyardgrass plant response rating [18, 25]: 0
- Barnyardgrass plant response rating [18, 26]: 0
- Plant response rating, Barnyardgrass [18, 27]: 0
- Ducksalad plant response rating [19, 25]: 0
- Ducksalad plant response rating [19, 26]: 0
- Plant response rating, Ducksalad [19, 27]: 0
- Rice plant response rating (rice (Oryza sativa); [25]): 0
- Rice plant response rating (rice (Oryza sativa); [26]): 0
- Plant response rating, Rice (rice (Oryza sativa); [27]): 0
